Read-outs that look alike come from different tables or passages of the source.

Results on 20 molecules are retold here after patent publication US20080188554A1, “METHODS OF TREATING AVIAN HYPERTENSION” (Regents of the University of California Office of …, priority 2006, published 2008).

In data set [1] the target is partially purified recombinant chicken sEH (Gallus gallus, UniProt Q45QT1). The experiment in a line: Inhibitor assay with fluorescent substrate PHOME. It is filed as biochemical. Particulars: PHOME 50 μM. The method, then:
Dilutions of enzyme, inhibitors and substrate were made in BisTris-HCl buffer (25 mM, pH 7.0, 0.1 mg/ml BSA). The enzyme was incubated with 20 μL of inhibitor dilutions for 10 min prior to substrate addition. After this incubation, 50 μL of (3-phenyl-oxiranyl)-acetic acid cyano-(6-methoxy-naphthalen-2-yl)-methyl ester (PHOME) at a final concentration of 50 μM (1% final DMSO content per well) was added.
The inhibitor screen occurred in two steps. The first step was incubation with a final inhibitor concentration of 100 nM. Positive hits obtained in this primary screen were then incubated with inhibitors at final concentrations of 1, 10, and 100 nM.

Data set [2] concerns the target T1, Recombinant chicken sEH (Gallus gallus, UniProt Q45QT1). The experiment in a line: Non-radioactive epoxide hydrolase assay (HPLC-MS/MS), specific activity of substrates. It is filed as biochemical. Conditions: for Specific activity: compound as substrate, 50 μM, 30° C., 10 min. As for the experimental part:
The trans-9,10-epoxystearate was purchased (Sigma-Aldrich). A 5 mM solution of each substrate was made in ethanol for the EETs and methanol for the epoxystearate. The substrate solution (1 μL) was added to 100 μL of enzyme preparation in sodium phosphate buffer (0.1 M, pH 7.4) containing 0.1 mg/mL of BSA ([S]final=50 μM). The enzyme was incubated with the substrate at 30° C. for 10 min, and the reaction quenched by addition of 400 μL of methanol. The products were analyzed by HPLC-MS/MS as previously described (Newman, J. W. et al., J. Lipid Res. 43:1563-1578 (2002)) with the following exceptions. A 2.0×20 mm, 3-μm Luna C18 Mercury MS column (Phenomenex, Torrance, Calif.) was used with a 350 μL/min isocratic flow of […] (vol/vol/vol) acetonitrile/water/methanol with 0.1% glacial acetic acid for 2.5 min. Assays were performed in triplicate.

For data set [3], the target named is T2, mouse sEH (Mus musculus, UniProt P34914).
T2 sequence (P34914 1-554): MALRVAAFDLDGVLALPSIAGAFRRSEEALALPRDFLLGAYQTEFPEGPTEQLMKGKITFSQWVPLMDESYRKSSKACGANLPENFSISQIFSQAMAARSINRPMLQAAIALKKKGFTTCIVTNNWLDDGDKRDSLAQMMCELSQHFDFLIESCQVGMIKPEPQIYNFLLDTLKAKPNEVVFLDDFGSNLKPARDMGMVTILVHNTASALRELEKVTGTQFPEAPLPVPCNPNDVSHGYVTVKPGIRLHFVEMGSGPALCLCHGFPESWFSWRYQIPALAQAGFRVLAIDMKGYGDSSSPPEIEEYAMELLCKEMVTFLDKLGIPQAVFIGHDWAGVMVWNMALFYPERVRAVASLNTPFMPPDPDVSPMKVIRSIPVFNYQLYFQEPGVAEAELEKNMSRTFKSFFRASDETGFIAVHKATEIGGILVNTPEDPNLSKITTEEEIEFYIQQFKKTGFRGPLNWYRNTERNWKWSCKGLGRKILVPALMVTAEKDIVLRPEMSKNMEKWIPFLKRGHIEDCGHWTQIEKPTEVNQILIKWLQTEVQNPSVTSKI
Conditions: compound as substrate, from Chacos 1983; cited from earlier work.

A further data set addresses T3, sEH (Homo sapiens, UniProt P34913).
T3 sequence (P34913 1-555): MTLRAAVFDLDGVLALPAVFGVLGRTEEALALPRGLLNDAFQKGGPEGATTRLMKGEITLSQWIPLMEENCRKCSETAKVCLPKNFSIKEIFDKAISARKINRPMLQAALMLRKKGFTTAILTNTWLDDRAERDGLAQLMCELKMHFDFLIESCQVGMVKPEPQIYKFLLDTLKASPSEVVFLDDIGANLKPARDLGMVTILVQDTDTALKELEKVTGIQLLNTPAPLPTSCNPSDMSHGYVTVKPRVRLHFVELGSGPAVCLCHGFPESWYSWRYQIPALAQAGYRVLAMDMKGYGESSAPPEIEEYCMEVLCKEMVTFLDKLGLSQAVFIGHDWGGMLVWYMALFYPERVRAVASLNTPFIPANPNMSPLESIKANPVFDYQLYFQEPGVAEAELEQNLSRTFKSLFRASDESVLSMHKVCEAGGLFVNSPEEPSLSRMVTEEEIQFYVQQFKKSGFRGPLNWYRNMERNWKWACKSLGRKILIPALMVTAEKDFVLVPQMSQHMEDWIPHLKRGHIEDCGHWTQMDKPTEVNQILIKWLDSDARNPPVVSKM
Particulars: t-DPPO as substrate, from Morisseau 2000; cited from earlier work.

The target in data set [4] is T2, mouse sEH. Particulars: t-DPPO as substrate, from Morisseau 2000; cited from earlier work.
In data set [5] the target is T1, Recombinant chicken sEH. The experiment in a line: Radiotracer epoxide hydrolase activity and kinetic parameters using t-DPPO as substrate. The data set is classed as biochemical. The method, then:
(§1) Epoxide hydrolase activity was measured using racemic [^3H]-trans-1,3-diphenylpropene oxide (t-DPPO) as substrate (Borhan, B. et al., Anal. Biochem. 231:188-200 (1995)). t-DPPO was previously synthesized and purified Borhan, B. et al., Anal. Biochem. 231:188-200 (1995)). 1 μL of a 5 mM solution of [^3H]t-DPPO in DMF was added to 100 μL of enzyme preparation in sodium phosphate buffer (0.1 M, pH 7.4) containing 0.1 mg/mL of BSA ([S]final=50 μM). The enzyme was incubated at 30 °C for 10 min, and the reaction quenched by addition of 60 μL of methanol and 200 μL of isooctane, which extracts the remaining epoxide from the aqueous phase. Extractions with 1-hexanol were performed in parallel to assess the possible presence of glutathione transferase activity which could also transform the substrate (Borhan, B. et al., Anal. Biochem. 231:188-200 (1995)). The activity was followed by measuring the quantity of radioactive diol formed in the aqueous phase using a scintillation counter (Wallac Model 1409, Gaithersburg, Md.). Assays were performed in triplicate.
A solution of [^3H] t-DPPO (1 μL in DMF) was added to 100 μL of enzyme preparation in sodium phosphate buffer (0.1 M, pH 7.4) containing 0.1 mg/mL of BSA ([S]final=50 μM). The Km determination was performed by fitting the data to the Michaelis-Menten equation using the nonlinear regression algorithm in SigmaPlot (SPSS, Inc., Chicago, Ill.) with an R-squared value of at least 0.97. The standard deviation was generated by performing the experiment three separate times in triplicate.

For data set [6], the target named is T1, Recombinant chicken sEH. The experiment in a line: IC50 determination using [3H]-t-DPPO as substrate. The data set is classed as biochemical. The method, then: The IC50 values reported herein were determined using racemic [^3H]-trans-1,3-diphenylpropene oxide (t-DPPO) as a substrate (Borhan, B. et al., Anal. Biochem. 231:188-200 (1995)). The inhibitors were synthesized as described (Morisseau, C. et al., Biochem. Pharmacol. 63:1599-1608 (2002)). Extracts of broiler hepatic cytosol or partially purified enzyme was diluted 50-fold in pH 7.4 0.1 M sodium phosphate buffer containing 0.1 mg/mL BSA, then incubated with the inhibitors for 5 min at 30° C. prior to substrate introduction. Prepared samples were incubated at 30° C. for 10 min and stopped as indicated above. Conditions used gave rates that were linear both with time and enzyme concentration. Assays were performed in triplicate. By definition, IC50 is the concentration of inhibitor that reduces enzyme activity by 50%. IC50 was determined by regression with a minimum of two points in the linear region of the curve on either side of the IC50 (for a total of 5 points). The curve was generated from at least three separate studies conducted in triplicate in order to obtain the standard deviation given in the results section.

Substrate in data set [7]: c1ccc(CC2OC2c2ccccc2)cc1
The experiment in a line: Radiotracer epoxide hydrolase activity and kinetic parameters using t-DPPO as substrate. The data set is classed as biochemical. Particulars: other: t-DPPO as substrate; recombinant chicken sEH; pH 7.4; 30.0 °C. The method, then: as §1
A solution of [^3H] t-DPPO (1 μL in DMF) was added to 100 μL of enzyme preparation in sodium phosphate buffer (0.1 M, pH 7.4) containing 0.1 mg/mL of BSA ([S]final=50 μM). […]

[8] abbreviates: partially purified recombinant chicken sEH, read-out: Chicken sEH IC50.

Turning to `O=C(NCCCc1ccccc1)NC1CCC(Oc2ccc(F)cc2)CC1` (centres unmarked) [Compound 1270], the IC50 in data set [1] (setting [8]) amounted to 3.5 ± 0.1 nM.

With `O=C(Nc1cccc(C(F)(F)F)c1)NC1CCC(OCc2c(F)cccc2F)CC1` (centres unmarked) [Compound 1285], the IC50 in data set [1] (setting [8]) was determined as 4.4 ± 0.1 nM.

On to `O=C(NC1CCCCCC1)NC1CCC(Oc2ccc(F)cc2)CC1` (centres unmarked) [Compound 1515], for which the IC50 in data set [1] (setting [8]) amounted to 2.6 ± 0.1 nM.

As to `O=C(O)CCCCCCCCCCCNC(=O)NC12CC3CC(CC(C3)C1)C2` [Compound 700], the IC50 in data set [1] (Chicken sEH IC50, partially purified recombinant chicken sEH) was determined as 12.6 ± 1.6 nM.

Consider `CCCCCC1OC1C/C=C\C/C=C\C/C=C\CCCC(=O)O` (centres unmarked) [14,15-EET], for which the “Activity relative to the activity measured with t-DPPO” value at Recombinant chicken sEH [2] is on record as “less than 1/30”. The Specific activity was 24.5 ± 2.1 nmol/min/mg on Recombinant chicken sEH [2] and 1260.0 nmol/min/mg at mouse sEH [3].

Consider `O=C(NCCCc1ccccc1)NC1CCC(OCc2c(F)cccc2F)CC1` (centres unmarked) [Compound 1318], for which the IC50 in data set [1] (setting [8]) is 1.9 ± 0.1 nM.

Take `C=CCOC1CCC(NC(=O)NC23CC4CC(CC(C4)C2)C3)CC1` (centres unmarked) [Compound 982]: the IC50 in data set [1] (setting [8]) is 1.7 ± 0.1 nM.

Take `c1ccc(CC2OC2c2ccccc2)cc1` (racemic) [t-DPPO, trans-1,3-diphenylpropene oxide]: at sEH, the Michaelis constant (Km) is 6.2 µM, the Specific activity was 4500 ± 200.0 nmol/min/mg and the kcat is 4.3 ± 0.3 s⁻¹. Moreover, at mouse sEH [4], the Km was 4.3 µM, the Specific activity is 17000 ± 300.0 nmol/min/mg and the catalytic constant (kcat) was 18.0 ± 0.3 s⁻¹. The “kcat/Km ratio of chicken enzyme, fold lower than human enzyme” value at Recombinant chicken sEH [5] (compared to human sEH) came out at 20 fold. In addition, at Recombinant chicken sEH [5] (compared to mouse sEH), the “kcat/Km ratio of chicken enzyme, fold lower than mouse enzyme” value came to 100 fold. Further, the Specific activity at Recombinant chicken sEH [5] (recombinant chicken sEH, mean ± SD of 3 experiments) was 823.1 ± 27.3 nmol/min/mg.

In the case of `CCCCCOC(=O)C1CCCC(NC(=O)NC23CC4CC(CC(C4)C2)C3)C1` (centres unmarked) [Compound 861], the IC50 in data set [1] (setting [8]) is 5.7 ± 0.3 nM.

With `O=C(O)CCCCCCCCCCCNC(=O)NC12CC3CC(CC(C3)C1)C2` [AUDA, 12-(3-Adamantan-1-yl-ureido)dodecanoic acid], the IC50 on Recombinant chicken sEH [6] stood at 13.7 nM.

As to `CCCCC/C=C\CC1OC1C/C=C\C/C=C\CCCC(=O)O` (centres unmarked) [11,12-EET], the Specific activity at Recombinant chicken sEH [2] was 12.0 ± 1.2 nmol/min/mg; on mouse sEH [3], 640.0 nmol/min/mg.

As to `CCCCC/C=C\C/C=C\CC1OC1C/C=C\CCCC(=O)O` (centres unmarked) [8,9-EET], the Specific activity on Recombinant chicken sEH [2] is 11.6 ± 0.1 nmol/min/mg; on mouse sEH [3], 370.0 nmol/min/mg.

For the molecule `O=C(Nc1cccc(Br)c1)NC1CCC(OCc2c(F)cccc2F)CC1` (centres unmarked) [Compound 1308], the IC50 in data set [1] (setting [8]) is 2.4 ± 0.1 nM.

With `O=C(Nc1cccc(Cl)c1)NC1CCC(OCc2c(F)cccc2F)CC1` (centres unmarked) [Compound 1302], in data set [1] (setting [8]), the IC50 was determined as 2 ± 0.1 nM.

`CCCCCOC(=O)C1CCC(NC(=O)NC23CC4CC(CC(C4)C2)C3)CC1` (centres unmarked) [Compound 863]: the IC50 in data set [1] (setting [8]) was 5.2 ± 0.2 nM.

Consider `O=C(Nc1ccc(C(F)(F)F)cc1)NC1CCC(OCc2c(F)cccc2F)CC1` (centres unmarked) [Compound 1289], for which the IC50 in data set [1] (setting [8]) worked out at 3.5 ± 0.1 nM.

For `O=C(NC1CCCCCCC1)NC1CCC(Oc2ccc(F)cc2)CC1` (centres unmarked) [Compound 1272], the IC50 in data set [1] (setting [8]) came to 5.1 ± 0.3 nM.

On to `CC(C)=CCOC1CCC(NC(=O)NC23CC4CC(CC(C4)C2)C3)CC1` (centres unmarked) [Compound 983], for which, in data set [1] (setting [8]), the IC50 amounted to 5.3 ± 0.2 nM.

As for `O=C(NC1CCCCCC1)NC1CCC(Oc2ccc(F)cc2)CC1` (centres unmarked) [Compound 1271], in data set [1] (setting [8]), the IC50 was determined as 2.7 ± 0.3 nM.

B1: Recombinant chicken sEH (Gallus gallus) (protein)
chain: MARRFALFDLGGVLFGPGLQHFLGSCERSYALPRNFLRDVLFAGGSDSPHAKVMRGQITLSQLFLEVDEGCRQHASTAGITLPTTFSIAHVFEEMAAKGTLNAPLLRAASMLRRNGFKTCVFTNNWVDDSMGRLFTSSLLTVVQRHFDLLIESCRVGLHKPDPRIYTYALEVLQAQPQEVIFLDDIGENLKPAREMGMATILVRDTDTVLKELQELSGVQLLQQEEPLPTTCDPATMSHGYVPIRPGVQLHFVEMGHGPAICLCHGFPESWLSWRYQIPALADAGFRVIALEMKGYGESTAPPEIEEYSQEQICKDLTIFLDKLGIPQAVFIGHDWGGAVVWNMALFYPERVRAVASLNTPYRPADPTVDIVETMKSFPMFDYQFYFQEPGVAEAELEKDIGRTLKALIRSTRPEDRLHSVPGLLGVQERGGLLVGFPEDIPESLILHGAELQYYIERFQRSGFRGPLNWYRNMRPNWRWALSAKDRKILMPALMVTAGKDVVLLPSMSKGMEEWIPQLRRGHLEACGHWTQMERPAALNRILVEWLEGLPPDGAMLRVSRL
As to B1, in data set [7], the Km was determined as 25.3 µM.
